Data taken from patent US20170027172A1, “USE OF SUBSTITUTE OXO TETRAHYDROQUINOLINE SULFONAMIDES OR SALTS THEREOF FOR RAISING STRESS TOLERANCE OF PLANTS” (BAYER CROPSCIENCE AKTIENGESELLSCHAFT, priority 2014, published 2017).

Tests used:
Brassica napus = assay: Drought stress greenhouse test Part C, visual scoring vs stressed control plants; type: in vivo; details: spray application 25 g/ha, efficacy range of 3-4 pots
Experimental: Seeds of monocotyledonous and dicotyledonous crop plants were sown in sandy loam in plastic or wood-fiber pots, covered with soil or sand and cultivated in a greenhouse under good growth conditions. The trial plants were treated at the early leaf stage (BBCH10-BBCH13). To assure uniform water supply before commencement of stress, the potted plants were supplied with water by dam irrigation prior to substance application. The inventive compounds were first formulated as wettable powders (WP) or dissolved in a solvent mixture. The further dilution was effected with water supplemented with 0.2% wetting agent (e.g. agrotin). The finished spray liquor was sprayed onto the green parts of the plant at an equivalent water application rate of 600 l/ha. Substance application was followed immediately by stress treatment of the plants. For this purpose, the wood-fiber pots were transferred in plastic inserts in order to prevent them from subsequently drying out too quickly. Drought stress was induced by gradual drying out under the following conditions: “Day”: 14 hours with illumination at 26-30° C. […] Once this juncture had been reached, the appearance of the plants treated with test substances was recorded in comparison to the stressed control plants by the following categories: [table] For each substance and dosage, 3-4 pots were treated and evaluated. […]

Triticum aestivum = assay: Drought stress test on wheat Part D, reduction in damage intensity from fresh weights; type: in vivo; details: efficacy = reduction in damage intensity (fresh weight) under drought stress, 25 g/ha, at least three repeats
Text: Wheat grains were sown in a standardized number in sandy loam soil plastic pots, covered with soil or sand and grown in a greenhouse under good growth conditions. Pots with uneven degrees of emergence were excluded prior to the start of the trial. The treatment with test substances was effected at the early leaf stage (BBCH10-BBCH13). To assure uniform water supply, the potted plants were supplied with water by dam irrigation prior to substance application. The inventive compounds were first formulated as wettable powders (WP) or dissolved in a solvent mixture. The further dilution was effected with water supplemented with 0.2% wetting agent (e.g. agrotin). The finished spray liquor was sprayed onto the green parts of the plant at an equivalent water application rate of 600 l/ha. Substance application was followed immediately by stress treatment of the plants. Drought stress was induced by gradual drying out under the following conditions: “Day”: 14 hours with illumination at 26-30° C. “Night”: 10 hours without illumination at 18-20° C. The duration of the respective stress phases was guided mainly by the condition of the stressed control plants. It was ended (by re-irrigating and transfer to a greenhouse with good growth conditions) as soon as irreversible damage was observed on the stressed control plants. The end of the stress phase was followed by an about 7-day recovery phase, during which the plants were once again kept under good growth conditions in a greenhouse. The exact duration of the recovery phase was variable for reasons related to the trial. At the end of the recovery phase, the fresh weights of the plant parts above ground were determined. By comparison with unstressed control plants which were kept under good growth conditions over the entire duration of the trial, percentage damage intensities were first calculated from the fresh weight values. The reduction in damage intensity resulting from treatment with test substance was then calculated by the following formula: [formula] EF: Efficacy DIs: Damage intensity of the stressed control plants DIt: Damage intensity of the stressed plants treated with test compound The values reported in table D-1 below are results from at least three repeats. BRSNS=Brassica napus TRZAS=Triticum aestivum

COC(=O)CCN1C(=O)CCc2cc(NS(=O)(=O)Cc3ccc(F)cc3)ccc21 [A51-158]
Effect (BRSNS) (Brassica napus): 20-30
EF [%] (TRZAS) (Triticum aestivum): 11%
